Experimental data from ChEMBL document CHEMBL1201862, “PubChem BioAssay data set” (2004).
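Exposure lasted 48 hours, with cells grown in 96-well plates and compounds tested at five concentrations. GI50 = concentration required for 50% inhibition of growth.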 Active and inactive are the calls of the source. Cut-off read from the data, not from the text of the source: active = GI50 up to about 1.1 µM and inactive = higher.

Key:
Experiment in all cases: inhibition of tumour cell growth, NCI panel, 48 h
IGROV-1 = system: IGROV-1
SF-295 = system: SF-295
MCF7 = system: MCF7
Hs-578T = system: Hs-578T
K562 = system: K562
COLO 205 = system: COLO 205
U-251 = system: U-251
SNB-19 = system: SNB-19
BT-549 = system: BT-549
MOLT-4 = system: MOLT-4
SK-OV-3 = system: SK-OV-3
NCI-H23 = system: NCI-H23
OVCAR-5 = system: OVCAR-5
SW-620 = system: SW-620
MDA-MB-435 = system: MDA-MB-435
CAKI-1 = system: CAKI-1
OVCAR-8 = system: OVCAR-8
MDA-N = system: MDA-N
HCC 2998 = system: HCC 2998

Measured: GI50

CO[C@@H]1[C@H](O)CC[C@]2(CO2)[C@H]1[C@@]1(C)O[C@@H]1CC=C(C)C
inactive: IGROV-1 104 µM | SF-295 11 µM | MCF7 > 200 µM | Hs-578T > 200 µM | K562 > 200 µM | COLO 205 152 µM | U-251 2.29 µM | SNB-19 79.1 µM | BT-549 > 200 µM | MOLT-4 80.5 µM | SK-OV-3 > 200 µM | NCI-H23 > 200 µM | OVCAR-5 > 200 µM | SW-620 107 µM | MDA-MB-435 95.5 µM | CAKI-1 > 200 µM

Cc1c(C)c(C)c(-n2[nH]c(=O)n(C)c2=O)c(C)c1C
inactive: IGROV-1 > 100 µM | SF-295 > 100 µM | MCF7 > 100 µM | Hs-578T > 100 µM | K562 > 100 µM | COLO 205 > 100 µM | U-251 > 100 µM | SNB-19 > 100 µM | BT-549 > 100 µM | OVCAR-8 > 100 µM | MOLT-4 > 100 µM | SK-OV-3 > 100 µM | MDA-N > 100 µM | NCI-H23 > 100 µM | OVCAR-5 > 100 µM | SW-620 > 100 µM | MDA-MB-435 > 100 µM | CAKI-1 > 100 µM

Cc1[nH]c2ccccc2c1-c1cc(-c2cc(-c3c(C)[nH]c4ccccc34)nc(N)n2)nc(N)n1
inactive: IGROV-1 > 100 µM | SF-295 > 100 µM | MCF7 > 100 µM | Hs-578T > 100 µM | K562 > 100 µM | COLO 205 > 100 µM | U-251 > 100 µM | SNB-19 > 100 µM | BT-549 > 100 µM | OVCAR-8 > 100 µM | MOLT-4 > 100 µM | SK-OV-3 > 100 µM | MDA-N > 100 µM | NCI-H23 > 100 µM | OVCAR-5 > 100 µM | SW-620 > 100 µM | MDA-MB-435 > 100 µM | CAKI-1 > 100 µM

O=C(O)C1CCCN1Cc1cc2ccccc2c2ccccc12 (configuration not stated)
inactive: IGROV-1 > 100 µM | SF-295 > 100 µM | MCF7 > 100 µM | Hs-578T > 100 µM | K562 40.1 µM | COLO 205 > 100 µM | U-251 > 100 µM | SNB-19 > 100 µM | BT-549 > 100 µM | OVCAR-8 > 100 µM | MOLT-4 > 100 µM | SK-OV-3 > 100 µM | MDA-N > 100 µM | NCI-H23 > 100 µM | OVCAR-5 > 100 µM | SW-620 > 100 µM | MDA-MB-435 > 100 µM | CAKI-1 > 100 µM

CC1S/C(=N/c2nnc(-c3ccccc3)o2)NC1=O (configuration not stated)
inactive: IGROV-1 43.9 µM | SF-295 18.3 µM | MCF7 44 µM | Hs-578T > 100 µM | K562 48 µM | COLO 205 47.1 µM | U-251 26.6 µM | SNB-19 55.6 µM | BT-549 71.4 µM | OVCAR-8 43.6 µM | MOLT-4 30.5 µM | MDA-N 32.7 µM | NCI-H23 94.8 µM | OVCAR-5 > 100 µM | SW-620 46 µM | MDA-MB-435 39.1 µM | CAKI-1 > 100 µM

CC1(C)[C@@H]2C[C@H]1[C@@H](Cc1cccc(C[C@H]3c4cc(-c5ccccn5)ncc4[C@H]4C[C@@H]3C4(C)C)c1)c1cc(-c3ccccn3)ncc12
inactive: HCC 2998 12.4 µM | IGROV-1 3.49 µM | MCF7 4.92 µM | K562 1.19 µM | COLO 205 2.93 µM | U-251 2.92 µM | SNB-19 3.46 µM | BT-549 > 100 µM | OVCAR-8 1.79 µM | MOLT-4 1.41 µM | SK-OV-3 > 100 µM | MDA-N 6.22 µM | NCI-H23 4.9 µM | OVCAR-5 > 72.4 µM | SW-620 8.45 µM | MDA-MB-435 2.96 µM | CAKI-1 1.75 µM
active: SF-295 0.69 µM

O=C1C(NS(=O)(=O)c2ccccc2)=C(N(Cc2ccccc2)Cc2ccccc2)C(=O)c2ccccc21
inactive: IGROV-1 41.8 µM | SF-295 31.9 µM | MCF7 49.7 µM | Hs-578T 81.3 µM | K562 31.1 µM | COLO 205 39.6 µM | U-251 35 µM | SNB-19 38.6 µM | BT-549 16.9 µM | OVCAR-8 70.3 µM | MOLT-4 21.1 µM | SK-OV-3 39.9 µM | MDA-N 64.6 µM | NCI-H23 15.8 µM | OVCAR-5 > 100 µM | SW-620 38.9 µM | MDA-MB-435 47.3 µM | CAKI-1 > 100 µM

C#CCNC(CCCNC(=N)N)C(=O)O (configuration not stated)
inactive: HCC 2998 > 100 µM | IGROV-1 > 100 µM | SF-295 > 100 µM | Hs-578T > 100 µM | K562 > 100 µM | COLO 205 > 100 µM | U-251 > 100 µM | SNB-19 > 100 µM | BT-549 > 100 µM | OVCAR-8 > 100 µM | MOLT-4 > 100 µM | SK-OV-3 > 100 µM | NCI-H23 > 100 µM | OVCAR-5 > 100 µM | SW-620 > 100 µM | MDA-MB-435 > 100 µM | CAKI-1 > 100 µM

COc1cccc(-c2nc(-c3cnccn3)n(C/C=C/c3ccccc3)n2)c1
inactive: HCC 2998 > 10 µM | IGROV-1 > 10 µM | SF-295 > 10 µM | MCF7 > 10 µM | Hs-578T > 10 µM | K562 > 10 µM | U-251 > 10 µM | SNB-19 > 10 µM | BT-549 > 10 µM | OVCAR-8 > 10 µM | MOLT-4 > 10 µM | MDA-N > 10 µM | NCI-H23 > 10 µM | OVCAR-5 > 10 µM | SW-620 > 10 µM | MDA-MB-435 > 10 µM

COc1ccc(C2SC(=N)Nc3c2c(C)nn3C(=O)c2ccccc2O)cc1OC (configuration not stated)
inactive: IGROV-1 4.71 µM | SF-295 5.69 µM | MCF7 3.3 µM | Hs-578T 1.56 µM | K562 3.53 µM | COLO 205 > 10 µM | U-251 4.5 µM | SNB-19 5.42 µM | BT-549 8.91 µM | MOLT-4 4.06 µM | SK-OV-3 2.54 µM | MDA-N 6.08 µM | NCI-H23 3.52 µM | OVCAR-5 > 10 µM | SW-620 > 10 µM | MDA-MB-435 2.81 µM | CAKI-1 6.59 µM

CN(C)/C=N/C1CCC(C(C)(C)C)CC1 (configuration not stated)
inactive: HCC 2998 14.8 µM | IGROV-1 21.5 µM | SF-295 17.4 µM | MCF7 27.9 µM | Hs-578T 20.7 µM | K562 15 µM | COLO 205 17.3 µM | U-251 16.1 µM | SNB-19 20.4 µM | BT-549 18.5 µM | OVCAR-8 15.6 µM | MOLT-4 12.9 µM | SK-OV-3 21.3 µM | NCI-H23 17.8 µM | OVCAR-5 17.7 µM | SW-620 16.9 µM | MDA-MB-435 18.7 µM | CAKI-1 18.9 µM

Cc1cc2sc(C)[n+](CCCOS(=O)(=O)[O-])c2cc1C
inactive: IGROV-1 > 100 µM | SF-295 > 100 µM | MCF7 60.8 µM | Hs-578T 27.9 µM | K562 63.4 µM | COLO 205 > 100 µM | U-251 > 100 µM | SNB-19 > 100 µM | BT-549 > 100 µM | OVCAR-8 > 100 µM | MOLT-4 72.4 µM | SK-OV-3 > 100 µM | MDA-N > 100 µM | NCI-H23 > 100 µM | OVCAR-5 > 100 µM | SW-620 > 100 µM | MDA-MB-435 > 100 µM | CAKI-1 > 100 µM

O=C1OS2(OC(=O)c3cccc4cccc2c34)c2ccccc21 (configuration not stated)
inactive: IGROV-1 > 100 µM | SF-295 > 100 µM | MCF7 > 100 µM | Hs-578T > 100 µM | K562 > 100 µM | COLO 205 > 100 µM | U-251 > 100 µM | SNB-19 > 100 µM | BT-549 > 100 µM | OVCAR-8 > 100 µM | MOLT-4 > 100 µM | MDA-N > 100 µM | NCI-H23 > 100 µM | OVCAR-5 > 100 µM | SW-620 > 100 µM | MDA-MB-435 > 100 µM | CAKI-1 > 100 µM

Nc1ccc2c(O)cc(O)nc2n1
inactive: IGROV-1 > 100 µM | SF-295 > 100 µM | MCF7 > 100 µM | Hs-578T > 100 µM | K562 > 100 µM | COLO 205 > 100 µM | U-251 > 100 µM | SNB-19 > 100 µM | BT-549 > 100 µM | OVCAR-8 > 100 µM | MOLT-4 > 100 µM | SK-OV-3 > 100 µM | MDA-N > 100 µM | NCI-H23 > 100 µM | OVCAR-5 > 100 µM | SW-620 > 100 µM | MDA-MB-435 > 100 µM | CAKI-1 > 100 µM

CC[C@]1(Cc2ccc(OC)c(OC)c2)C=[N+]([O-])O[C@H](OC2CCCC2(c2ccccc2)c2ccccc2)[C@@H]1OC(=O)C(C)(C)C (some centres not stated)
inactive: HCC 2998 1.94 µM | IGROV-1 2.62 µM | SF-295 3.47 µM | MCF7 2.74 µM | Hs-578T 2.72 µM | K562 3.61 µM | COLO 205 2.6 µM | U-251 5.62 µM | SNB-19 3.84 µM | BT-549 4.38 µM | OVCAR-8 2.19 µM | MOLT-4 2.76 µM | SK-OV-3 15.2 µM | NCI-H23 3.6 µM | OVCAR-5 8.71 µM | SW-620 10.1 µM | MDA-MB-435 2.03 µM | CAKI-1 4.19 µM
